In data set [1] the test system is pancreatic (Panc-1) tumor. In words: CAM tumor implant model, Panc-1. It is filed as in vivo. The following applies: 10 ug/CAM.
The next data set concerns human umbilical vein. In words: In vitro human vessel perfusion model. It is filed as cell-based. Conditions: FIG. 3. The text has this: Based on published data obtained on the tumor/vessel adherence characteristics in this model [Mousa S A., Comparative pharmacodynamic assessment of the antiangiogenesis activity of heparin and low-molecular-weight heparin fractions: structure function relationship, Clin Appl Thromb Hemost, 2013, 19(1):48-54], umbilical vein was utilized for all studies. Following informed consent, fresh umbilical cord was obtained, using a sterile technique, from the placenta following normal delivery […] from patients at local hospitals. Approximately 20 cm of the cord is excised, rinsed and wiped free of blood using cold 0.9% saline and sterile gauze. Then cold saline was used to flush the vein clean of blood. Two sections of umbilical cord (approximately 3 cm each) are cut longitudinally to expose the vein surface and are pinned to the silastic base of the chamber using 27 G×1 inch needles. […]
The vein segments were perfused for 24 hours with cancer cells in platelet-rich plasma (PRP) under venous flow conditions (70 ml/min). […] Blood gases of the perfusate were measured 15 minutes after the start and just prior to the end of the perfusion period to confirm that physiological conditions were maintained. […] Statistical significance was determined by using a paired t-test. […]

Data set [2] in a line: Bleeding time (tail transection). It is filed as in vivo, mice. The following applies: dose not stated; vs control. The method, then: Bleeding time in mice was tested during the period of receiving test compounds. Mice were anesthetized with isoflurane inhalation. By using a scalpel, 0.5 cm of the distal end of the tail was transected, and the remaining length of tail was immersed immediately into a 37° C. solution of saline. Bleeding time was measured from the time of tail transection until visible bleeding could no longer be detected. The experiment was repeated 3 times with different groups and concentrations.

Another data set relates to Mpanc96-luc cancer cells. Nature of the data set: Liver metastasis and recurrence after excision of pancreatic cancer. The data set is classed as in vivo. The following applies: experiment and dose not stated at the place. The text has this: Different groups of mice received either saline (control), LMWH, SNACH or S-SNACH, followed by injection of luciferase transfected pancreatic cancer cells into the mouse spleen. The treatment continued daily for two weeks. IVIS imaging was done once a week to measure the metastatic load to various organs. The tumor burden measurements were based on the bioluminescence signal intensity of the pancreatic cancer cells. The second experiment was intended to study the effect of the compounds (LMWH, SNACH, and S-SNACH) on metastasis after tumor excision surgery. Pancreatic Mpanc96 cells were injected into the tail of the pancreas and one week later animals were randomized into different groups. One group received saline and another group received LMWH, SNACH, and S-SNACH at 30 minutes before resection of the pancreatic tumor, followed by daily treatment for 3 weeks. Tumor metastasis was evaluated by IVIS imagining. A bleeding time experiment was done to evaluate the relative effect on bleeding time. […] Tumor luminescent signal intensity, weight, and histopathology were assessed at the termination of the study.
Mice were randomly distributed into control and treatment groups, averaging 10 mice in each group. […] The spread of cancer cells was monitored using IVIS imaging once per week, and at the end of the 3 week treatment period the mice were euthanized.

Data set [3] has as its system MCF7 DOX resistant cancer cells. Nature of the data set: Orthotopic implant of MCF7 DOX resistant cells in nude mice. The data set is classed as in vivo. Conditions: 10 mg/Kg, SC daily for 15 days, vs control. As for the experimental part: Immune-deficient female NCr nude homozygous mice aged 5-6 weeks weighing 18-20 g were purchased from Harlan Laboratories (Indianapolis, Ind.). All animal studies were conducted in accordance with the institutional guidelines for humane animal treatment. Mice were maintained under specific pathogen-free conditions and housed under controlled conditions of temperature (20-24° C.), humidity (60-70%), and 12 h light/dark cycle with ad libitum access to water and food. Mice were allowed to acclimatize for 5 days prior to the start of study.
Orthotopic implant of 0.5 million of MCF7 DOX resistant cancer cells in nude mice result in progressive rapid tumor growth approaching 150 mm3 after 5 days of implant.

This is an account of results in patent US9572831B2, “Composition and method for sulfated non-anticoagulant low molecular weight heparins in cancer and tumor metastasis” (priority 2013, dated 2017).

tinzaparin: in data set [1], the “tumor growth or tumor angiogenesis” value was “inhibited”. In addition, the “pancreatic cancer cell adhesion” value in the data set on human umbilical vein is “comparable anti-adhesive potency”. Also, the bleeding time entry in data set [2] is “extended the bleeding significantly”. Moreover, in the data set with Mpanc96-luc cancer cells, the “tumor recurrence after surgical excision” value is “not”. Moreover, the tumor growth progression result in data set [3] was “halting tumor growth progression”.
